Results: PubChem BioAssay (NCI)
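How tested: cells in 96-well plates exposed to compound for 48 hours at five concentrations. GI50 marks 50% less growth. At the TGI there is no net growth.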

Experiments:
Assay in all cases: inhibition of tumour cell growth, NCI panel, 48 h
786-0 renal = system: 786-0 renal
HL-60(TB) leukemia = system: HL-60(TB) leukemia
HOP-62 NSCLC = system: HOP-62 NSCLC
HOP-92 NSCLC = system: HOP-92 NSCLC
MDA-MB-231 breast = system: MDA-MB-231 breast
NCI/ADR-RES ovarian = system: NCI/ADR-RES ovarian
SF-295 CNS = system: SF-295 CNS
SK-MEL-2 melanoma = system: SK-MEL-2 melanoma
SNB-75 CNS = system: SNB-75 CNS
TK-10 renal = system: TK-10 renal

SMILES | GI50 (786-0 renal) | TGI (786-0 renal) | GI50 (HL-60(TB) leukemia) | TGI (HL-60(TB) leukemia) | GI50 (HOP-62 NSCLC) | TGI (HOP-62 NSCLC) | GI50 (HOP-92 NSCLC) | TGI (HOP-92 NSCLC) | GI50 (MDA-MB-231 breast) | TGI (MDA-MB-231 breast) | GI50 (NCI/ADR-RES ovarian) | TGI (NCI/ADR-RES ovarian) | GI50 (SF-295 CNS) | TGI (SF-295 CNS) | GI50 (SK-MEL-2 melanoma) | TGI (SK-MEL-2 melanoma) | GI50 (SNB-75 CNS) | TGI (SNB-75 CNS) | GI50 (TK-10 renal) | TGI (TK-10 renal)
O=C(NNS(=O)(=O)c1ccc(F)cc1)c1cccnc1Nc1ccc(Cl)cc1Cl | 23 µM | 53.6 µM | 25.2 µM | 62.3 µM | 30.9 µM | 84.5 µM | 15.4 µM | 36.1 µM | 28.8 µM | > 100 µM | 39.8 µM | > 100 µM | 36.9 µM | > 100 µM | 42.3 µM | > 100 µM | 25.5 µM | > 100 µM | 33.8 µM | > 100 µM
COC(=O)C1(C2CC/C(C)=C/CC/C(C)=C/CC[C@@]3(C)O[C@@H]3C2)CC1 (stereo not given in full) | 35.5 µM | > 70 µM | 25.2 µM | > 83.5 µM | 25.8 µM | 65.8 µM | 27.3 µM | > 100 µM | > 48.6 µM | > 74.7 µM | > 55 µM | > 100 µM | > 60.4 µM | > 100 µM | > 100 µM | > 100 µM | > 100 µM | > 100 µM | > 59.6 µM | > 100 µM
CC(=O)OC1CCC2(C)C(=CCC3C4CCC5(OC6CC(C)CN(C(C)=O)C6C5C)C(C)=C4C(=O)C32)C1 (stereo not given) | – | 72.6 µM | – | > 100 µM | – | 46.4 µM | – | 28.9 µM | – | 33.3 µM | – | 49.5 µM | – | 42 µM | – | 31.9 µM | – | 41.5 µM | – | 56.7 µM
Cc1ccc(C2C3=C(N=c4s/c(=C/c5ccc(Br)cc5)c(=O)n42)c2ccc4ccccc4c2OCC3)cc1 (stereo not given) | > 100 µM | > 100 µM | > 100 µM | > 100 µM | > 100 µM | > 100 µM | > 100 µM | > 100 µM | > 100 µM | > 100 µM | > 100 µM | > 100 µM | > 100 µM | > 100 µM | > 100 µM | > 100 µM | > 100 µM | > 100 µM | > 100 µM | > 100 µM
Cc1ccc2c(c1)O/C(=C\c1ccc([N+](=O)[O-])o1)C2=O | 2.15 µM | 4.72 µM | 1.92 µM | 5.09 µM | 2.27 µM | 6.48 µM | 1.14 µM | 2.76 µM | 1.36 µM | 3.27 µM | 2.85 µM | 23.1 µM | 2.42 µM | 7.06 µM | 1.9 µM | 3.72 µM | 2.85 µM | > 100 µM | 1.39 µM | 2.75 µM
COc1ccc(/C=C(/C)[N+](=O)[O-])cc1 | – | 2.51 µM | – | > 21.8 µM | – | 3.61 µM | – | 5.66 µM | – | 9.89 µM | – | 13.6 µM | – | 19 µM | – | 10.8 µM | – | 3.4 µM | – | 3.64 µM
NC(=S)N/N=C\c1nccc2c(N)cccc12 | 0.163 µM | 0.737 µM | 0.181 µM | 11.7 µM | 0.352 µM | > 22 µM | 0.233 µM | > 100 µM | 0.471 µM | > 100 µM | 0.375 µM | 17.3 µM | 0.309 µM | 3.81 µM | 2.79 µM | > 100 µM | 0.139 µM | 87.5 µM | 0.961 µM | > 100 µM
